Reference: patent US20140323543A1, “Treatment of Prostate Cancer with eIF4E Antisense Compounds” (priority 2013, published 2014)
Marks after values point to notes of the source that are not given here. In the oligonucleotide strings, read from the 5' end, every base follows the letter of its sugar. An asterisk marks phosphorothioate; unmarked linkages are phosphodiester. Other units and linkages are bracketed, terminal groups are in braces. A string of capitals states the bases alone. e = 2'-O-(2-methoxyethyl) (MOE); [5mC] = 5-methylcytosine; d = 2'-deoxy (DNA)

Experiments:
Assay type in all cases: in vivo
[1] = system: A549 Non-Small Cell Lung Cancer Xenograft; assay: A549 non-small cell lung cancer xenograft tumor volume in mice; design: key to Mean Tumor Volume: tumor volume in mm^3; conditions: ASO 50 mg/kg iv; for Mean Tumor Volume: in mm³; for Percent Reduction in Mean Tumor Volumes (observed): NSCLC A 549 Day 50, vs. Vehicle Control, Taxotere 10 mg/kg IP
Description: (§1) Xenograft studies are carried out as described in Graff et al. (2005) Cancer Res. 65:7462-7469. Five million human cancer cells representing non-small cell lung cancer (line A549; ATCC, accession no. CCL-185), hormone refractory prostate cancer (line PC-3; ATCC, accession no. CRL-1435), and ER-/PR-HER2-breast cancer (line MDA-231; ATCC, accession no. HTB-26) are injected subcutaneously in the flank of 6-8 week old, athymic nude mice (Harlan, Indianapolis, Ind.) in a 1:1 mixture of serum-free growth medium and matrigel (Becton Dickinson, Bedford, Mass., catalogue #354234). Mice are monitored daily for palpable tumors.
(§2) When tumor volumes reach ˜50-100 mm^3, mice are randomized to treatment groups (Graff et al. (2007) J. Clin. Invest. 117:2638-48). Body weight is monitored each time tumors are measured.
(§3) For treatment, all mice are injected intravenously with the eIF-4E ASO in saline in a total volume of 200 μl. The ASO consists of the nucleotide sequence 5′-[…]-3′ (SEQ ID NO:1), in which every internucleoside linkage is a phosphorothioate linkage, nucleotides 1-5 and 16-20 reading from the 5′ end to the 3′ end each comprise a 2′-O-(2-methoxyethyl) sugar, nucleotides 6-15 are 2′-deoxynucleotides, every cytosine residue is a 5-methylcytosine, and which is in the form of a sodium salt. The mice are first injected with an initial loading dose of 50 mg/kg ASO for 3 consecutive days, followed by 50 mg/kg thrice weekly thereafter.
(§4) Taxotere® (docetaxel) dosing begins 8 days after the first ASO dose to allow time for reduction of eIF-4E protein expression. Mice are dosed with 2.5 or 10 mg/kg Taxotere® (Sanofi-Aventis) intraperitoneally (IP) in 1% ethanol in 5% dextrose water in a volume of 200 μl once weekly for 3 weeks.
(§5) Tumor volumes are calculated measuring the largest (L) and smallest (W) diameters with a caliper. The formula is: Volume=L×W^2×0.534. Tumor volume data are transformed to a log scale to equalize variance across time and treatment groups. The log volume data are analyzed with a two-way repeated measures analysis of variance by time and treatment using SAS PROC MIXED software (SAS Institute Inc, Cary, N.C.) using the spatial power covariance structure. Treatment groups are compared to the control group at each time point and overall. The data may be plotted as means and standard errors for each treatment group versus time. Additivity is assessed in two ways: (1) as an overall interaction effect between the ASO and Taxotere® in the repeated measures analysis, and (2) by using the Bliss Independence method on the final day of the study (C.I. Bliss (1939) Ann. Appl. Biol. 26:585-615). These two methods yield the same results.
(§6) The observed percent reductions in mean tumor volume at the conclusion of each study resulting from the various treatments are shown in Table 4. These are calculated as: […]
(§7) The “Expected if Additive” percent reductions in mean tumor volume shown in Table 4 are calculated using the Bliss Independence definition of additivity, as follows: […]

[2] = system: PC-3 Hormone-Refractory Prostate Cancer Xenograft; assay: PC-3 hormone-refractory prostate cancer xenograft tumor volume in mice; conditions: ASO 50 mg/kg iv; for Mean Tumor Volume: in mm³; for Percent Reduction in Mean Tumor Volumes (observed): Prostate PC3 Day 35, vs. Vehicle Control
Description: as §1, §2, §3, §4, §5, §6, §7

[3] = system: MDA-231 Breast Cancer Xenograft; assay: MDA-231 breast cancer xenograft tumor volume in mice; conditions: for Percent Reduction in Mean Tumor Volumes (observed): Breast MDA-231 Day 33, vs. Vehicle Control; for Percent Reduction in Mean Tumor Volumes (observed) / Mean Tumor Volume: ASO 50 mg/kg iv; for Mean Tumor Volume: in mm³
Description: as §1, §2, §3, §4, §5, §6, §7

[4] = Day 7, docetaxel 10 mg/kg IP once weekly from 8 days after first ASO dose, tumor volumes in mm^3
[5] = Day 7, Taxotere 10 mg/kg IP once weekly from 8 days after first ASO dose, tumor volumes in mm^3
[6] = Day 5, Taxotere 2.5 mg/kg IP once weekly from 8 days after first ASO dose, tumor volumes in mm^3

| Molecule | Mean Tumor Volume [1, 4] | Mean Tumor Volume ([1]; Day 10, docetaxel 10 mg/kg IP) | Mean Tumor Volume ([1]; Day 15, docetaxel 10 mg/kg IP) | Mean Tumor Volume ([1]; Day 18, docetaxel 10 mg/kg IP) | Mean Tumor Volume ([1]; Day 22, docetaxel 10 mg/kg IP) | Mean Tumor Volume ([1]; Day 25, docetaxel 10 mg/kg IP) | Mean Tumor Volume ([1]; Day 29, docetaxel 10 mg/kg IP) | Mean Tumor Volume ([1]; Day 32, docetaxel 10 mg/kg IP) | Mean Tumor Volume ([1]; Day 36, docetaxel 10 mg/kg IP) | Mean Tumor Volume ([1]; Day 39, docetaxel 10 mg/kg IP) | Mean Tumor Volume ([1]; Day 43, docetaxel 10 mg/kg IP) | Mean Tumor Volume ([1]; Day 46, docetaxel 10 mg/kg IP) | Mean Tumor Volume ([1]; Day 50, docetaxel 10 mg/kg IP) | Percent Reduction in Mean Tumor Volumes (observed) [1] [%] | Mean Tumor Volume [2, 5] | Mean Tumor Volume ([2]; Day 12, Taxotere 10 mg/kg IP) | Mean Tumor Volume ([2]; Day 15, Taxotere 10 mg/kg IP) | Mean Tumor Volume ([2]; Day 19, Taxotere 10 mg/kg IP) | Mean Tumor Volume ([2]; Day 22, Taxotere 10 mg/kg IP) | Mean Tumor Volume ([2]; Day 27, Taxotere 10 mg/kg IP) | other results |
| --- | --- | --- | --- | --- | --- | --- | --- | --- | --- | --- | --- | --- | --- | --- | --- | --- | --- | --- | --- | --- | --- |
| CC(=O)O[C@@]12CO[C@@H]1C[C@H](O)[C@@]1(C)C(=O)[C@H](O)C3=C(C)[C@@H](OC(=O)[C@H](O)[C@@H](NC(=O)OC(C)(C)C)c4ccccc4)C[C@@](O)([C@@H](OC(=O)c4ccccc4)[C@H]21)C3(C)C [Docetaxel, (2R,3S)—N-carboxy-3-phenylisoseine,N-tert-butyl ester, 13-ester with 5β-20-epoxy-1,2α,4,7β,10β,13α-hexahydroxytax-11-en-9-one 4-acetate 2-benzoate, trihydrate, reference compound] | 49.7 | 56.7 | 114.8 | 70.0 | 135.8 | 170.1 | 257.0 | 261.5 | 290.0 | 282.3 | 342.6 | 310.2 | 343.8 | −29.6 | 46.3 | 106.8 | 134.7 | 164.8 | 171.7 | 157.4 | Mean Tumor Volume ([2]; Day 29, Taxotere 10 mg/kg IP): 162.7; Mean Tumor Volume ([2]; Day 33, Taxotere 10 mg/kg IP): 161.6; Mean Tumor Volume ([2]; Day 35, Taxotere 10 mg/kg IP): 167.0; Percent Reduction in Mean Tumor Volumes (observed) ([2]; Taxotere 10 mg/kg IP): −69.5%*; Percent Reduction in Mean Tumor Volumes (observed) ([3]; Taxotere 2.5 mg/kg IP): −1.4%; Mean Tumor Volume [3, 6]: 78.7; Mean Tumor Volume ([3]; Day 8, Taxotere 2.5 mg/kg IP): 130.1; Mean Tumor Volume ([3]; Day 12, Taxotere 2.5 mg/kg IP): 180.9; Mean Tumor Volume ([3]; Day 15, Taxotere 2.5 mg/kg IP): 221.0; Mean Tumor Volume ([3]; Day 19, Taxotere 2.5 mg/kg IP): 270.3; Mean Tumor Volume ([3]; Day 22, Taxotere 2.5 mg/kg IP): 333.9; Mean Tumor Volume ([3]; Day 26, Taxotere 2.5 mg/kg IP): 384.9; Mean Tumor Volume ([3]; Day 29, Taxotere 2.5 mg/kg IP): 450.4; Mean Tumor Volume ([3]; Day 33, Taxotere 2.5 mg/kg IP): 529.6 |
| d(P-thio)([2′-O-(2-methoxyethyl)]m5rU-([2′-O-(2-methoxyethyl)]rG-([2′-O-(2-methoxyethyl)]m5rU-([2′-O-(2-methoxyethyl)]m5rC-([2′-O-(2-methoxyethyl)]rA-T-A-T-T-m5C-m5C-T-G-G-A-([2′-O-(2-methoxyethyl)]m5rU-([2′-O-(2-methoxyethyl)]m5rC-([2′-O-(2-methoxyethyl)]m5rC-([2′-O-(2-methoxyethyl)]m5rU-([2′-O-(2-methoxyethyl)]m5rU) (antisense eT*eG*eT*e[5mC]*eA*dT*dA*dT*dT*d[5mC]*d[5mC]*dT*dG*dG*dA*eT*e[5mC]*e[5mC]*eT*eT) [eIF-4E ASO] | 52.7 | 69.4 | 113.7 | 79.1 | 139.5 | 149.0 | 220.1 | 249.5 | 256.6 | 239.1 | 313.2 | 292.3 | 404.0 | −17.3 | 49.8 | 88.3 | 130.3 | 159.0 | 218.8 | 294.5 | Mean Tumor Volume ([2]; Day 29, Taxotere 10 mg/kg IP): 343.9; Mean Tumor Volume ([2]; Day 33, Taxotere 10 mg/kg IP): 424.0; Mean Tumor Volume ([2]; Day 35, Taxotere 10 mg/kg IP): 491.2; Percent Reduction in Mean Tumor Volumes (observed) ([2]; Taxotere 10 mg/kg IP): −10.2%; Percent Reduction in Mean Tumor Volumes (observed) ([3]; Taxotere 2.5 mg/kg IP): +16.6%; Mean Tumor Volume [3, 6]: 78.9; Mean Tumor Volume ([3]; Day 8, Taxotere 2.5 mg/kg IP): 129.4; Mean Tumor Volume ([3]; Day 12, Taxotere 2.5 mg/kg IP): 166.6; Mean Tumor Volume ([3]; Day 15, Taxotere 2.5 mg/kg IP): 221.0; Mean Tumor Volume ([3]; Day 19, Taxotere 2.5 mg/kg IP): 268.2; Mean Tumor Volume ([3]; Day 22, Taxotere 2.5 mg/kg IP): 356.3; Mean Tumor Volume ([3]; Day 26, Taxotere 2.5 mg/kg IP): 435.9; Mean Tumor Volume ([3]; Day 29, Taxotere 2.5 mg/kg IP): 574.1; Mean Tumor Volume ([3]; Day 33, Taxotere 2.5 mg/kg IP): 626.2; Effect on mean tumor volume (in words) ([3]; breast cancer model, ASO alone): non-statistically significant increase |
